The numbers were not newly measured in patent US10538548B2, “Material mixture containing rubusoside or alpha glycosylrubusoside, for enhancing sweet taste” (SYMRISE AG, priority 2014, dated 2020), which cites them from elsewhere.

The conditions of this data set: pure rubusoside.

Turning to `C=C1C[C@@]23CC[C@H]4[C@@](C)(CCC[C@@]4(C)C(=O)O[C@@H]4O[C@H](CO)[C@@H](O)[C@H](O)[C@H]4O)[C@@H]2CC[C@]1(O[C@@H]1O[C@H](CO)[C@@H](O)[C@H](O)[C@H]1O)C3` [rubusoside, Rubusoside], the “sweetening power relative to sugar” value is listed as 200 times.
